The C3SDB collision cross section collection

Tests used:
[1] = instrument: DT, single field, calibrated with Agilent tune mix (Agilent)
[2] = instrument: DT, stepped-field
[3] = instrument: DT, stepped-field; remark: listed apart in the source

Row | Compound | collision cross section (N2) ([2]; [M+H]+) [Å²] | collision cross section (N2) ([2]; [M+Na]+) [Å²] | collision cross section (N2) ([3]; [M+H-H2O]+) [Å²] | collision cross section (N2) ([3]; [M+H]+) [Å²] | collision cross section (N2) ([3]; [M+Na]+) [Å²] | also measured
1 | C[C@]12CCC(=O)C=C1CC[C@@H]1[C@@H]2[C@@H](O)C[C@]2(C=O)[C@@H](C(=O)CO)CC[C@@H]12 [Aldosterone] | 196.05 | 204.09 | – | – | – | collision cross section (N2) ([1]; [M+H]+): 187.7 Å²; collision cross section (N2) ([1]; [M-H]-): 181.09 Å²
2 | C[N+](C)(C)CC(=O)[O-] [Betaine] | 121.6 | 135.56 | – | – | – | collision cross section (N2) ([1]; [M+H]+): 121.4 Å²
3 | C=CC1=C(C)C(/C=c2\[nH]/c(=C\c3[nH]c(/C=C4\NC(=O)C(C)=C4C=C)c(C)c3CCC(=O)O)c(CCC(=O)O)c2C)=NC1=O [Biliverdin] | 246.5 | 248.83 | – | – | – | collision cross section (N2) ([1]; [M+Na]+): 246.7 Å²; collision cross section (N2) ([1]; [M-H]-): 242.04 Å²
4 | CCCCCCCCCCCCC=CC[C@@H](O)[C@H](CO)NC(=O)CCCCCCCCCCCCCCCCCCC [Cer(38:01)] | – | – | 263.93 | – | – | –
5 | CCCCCCCCCCCCC=CC[C@@H](O)[C@H](CO)NC(=O)CCCCCCCCCCCCCCCCCCCCC [Cer(40:01)] | – | – | 269.41 | – | – | –
6 | CCCCCCCCCCCCC=CC[C@@H](O)[C@H](CO)NC(=O)CCCCCCCCCCCCCCCCCCCCCC [Cer(41:01)] | – | – | 272.16 | – | – | –
7 | CCCCCCCCCCCCC=CC[C@@H](O)[C@H](CO)NC(=O)CCCCCCCCCCCCCCCCCCCCCCC [Cer(42:01)] | – | – | 275.06 | 277.56 | – | collision cross section (N2) ([3]; [M+H-2H2O]+): 273.88 Å²
8 | CCCCCCCCCCCCC=CC[C@@H](O)[C@H](CO)NC(=O)CC=CCCCCCCCCCCCCCCCCCCCC [Cer(42:02)] | – | – | 273.26 | 276.77 | – | collision cross section (N2) ([3]; [M+H-2H2O]+): 271.35 Å²
9 | CCCCCCCCCCCCC=CC[C@@H](O)[C@H](CO)NC(=O)CC=CCC=CCCCCCCCCCCCCCCCCC [Cer(42:03)] | – | – | 271.44 | 275.18 | – | –
10 | O=C(O)CCCC[C@@H]1SC[C@@H]2NC(=O)N[C@@H]21 [D-Biotin] | 154.16 | 164.45 | – | – | – | collision cross section (N2) ([1]; [M+H]+): 150.4 Å²; collision cross section (N2) ([1]; [M-H]-): 152.96 Å²
11 | OC[C@H]1O[C@H](O[C@H]2[C@H](O)[C@@H](O)[C@H](O)O[C@@H]2CO)[C@H](O)[C@@H](O)[C@@H]1O [D-Maltose] | – | 179.19 | – | – | – | collision cross section (N2) ([1]; [M+K-2H]-): 175.19 Å²; collision cross section (N2) ([1]; [M+Na]+): 178.1 Å²
12 | OC[C@H]1OC(O)[C@@H](O)[C@@H](O)[C@@H]1O (stereo partly drawn) [D-Mannose] | – | 141.82 | – | – | – | collision cross section (N2) ([1]; [M+Na]+): 140.8 Å²
13 | NCCc1ccc(O)c(O)c1 [Dopamine] | 125.24 | – | – | – | – | collision cross section (N2) ([1]; [M-H]-): 129.51 Å²
14 | CCCCCCCCCCCCCCCC(=O)N[C@@H](CO[C@@H]1O[C@H](CO)[C@@H](O)C(O)C1O)[C@H](O)CCCCCCCCCCCCCCC (stereo partly drawn) [GlcCer(34:00)] | – | – | – | – | 280.92 | –
15 | CCCCCCCCCCCCC=CC[C@@H](O)[C@H](CO[C@@H]1O[C@H](CO)[C@@H](O)C(O)C1O)NC(=O)CCCCCCCCCCCCCCCCC (stereo partly drawn) [GlcCer(36:01)] | – | – | 279.86 | 282.43 | 284 | collision cross section (N2) ([3]; [M+Cl]-): 284.18 Å²; collision cross section (N2) ([3]; [M+HCOO]-): 287.29 Å²
16 | CCCCCCCCCCCCC=CC[C@@H](O)[C@H](CO[C@@H]1O[C@H](CO)[C@@H](O)C(O)C1O)NC(=O)CCCCCCCCCCCCCCCCCC (stereo partly drawn) [GlcCer(37:01)] | – | – | – | – | 287.43 | –
17 | CCCCCCCCCCCCCCCCCCCC(=O)N[C@@H](CO[C@@H]1O[C@H](CO)[C@@H](O)C(O)C1O)[C@H](O)CCCCCCCCCCCCCCC (stereo partly drawn) [GlcCer(38:00)] | – | – | – | 290.18 | 291.27 | –
18 | CCCCCCCCCCCCC=CC[C@@H](O)[C@H](CO[C@@H]1O[C@H](CO)[C@@H](O)C(O)C1O)NC(=O)CCCCCCCCCCCCCCCCCCC (stereo partly drawn) [GlcCer(38:01)] | – | – | 286.62 | 288.15 | 290.52 | –
19 | CCCCCCCCCCCCC=CC[C@@H](O)[C@H](CO[C@@H]1O[C@H](CO)[C@@H](O)C(O)C1O)NC(=O)CCCCCCCCCCCCCCCCCCCCC (stereo partly drawn) [GlcCer(40:01)] | – | – | 292.77 | 293.87 | 296.15 | collision cross section (N2) ([3]; [M+Cl]-): 292.56 Å²; collision cross section (N2) ([3]; [M+HCOO]-): 298.16 Å²
20 | CCCCCCCCCCCCC=CC[C@@H](O)[C@H](CO[C@@H]1O[C@H](CO)[C@@H](O)C(O)C1O)NC(=O)CC=CCCCCCCCCCCCCCCCCCC (stereo partly drawn) [GlcCer(40:02)] | – | – | 290.36 | 293.98 | 292.09 | –

Row | Compound | collision cross section (N2) ([2]; [M+H]+) [Å²] | collision cross section (N2) ([2]; [M+Na]+) [Å²] | collision cross section (N2) ([3]; [M+H-H2O]+) [Å²] | collision cross section (N2) ([3]; [M+H]+) [Å²] | collision cross section (N2) ([3]; [M+Na]+) [Å²] | also measured
21 | CCCCCCCCCCCCC=CC[C@@H](O)[C@H](CO[C@@H]1O[C@H](CO)[C@@H](O)C(O)C1O)NC(=O)CCCCCCCCCCCCCCCCCCCCCC (stereo partly drawn) [GlcCer(41:01)] | – | – | 294.63 | 297.12 | 297.42 | –
22 | CCCCCCCCCCCCC=CC[C@@H](O)[C@H](CO[C@@H]1O[C@H](CO)[C@@H](O)C(O)C1O)NC(=O)CCCCCCCCCCCCCCCCCCCCCCC (stereo partly drawn) [GlcCer(42:01)] | – | – | 298.36 | 300.59 | 301.76 | collision cross section (N2) ([3]; [M+Cl]-): 298.88 Å²; collision cross section (N2) ([3]; [M+HCOO]-): 302.85 Å²
23 | CCCCCCCCCCCCC=CC[C@@H](O)[C@H](CO[C@@H]1O[C@H](CO)[C@@H](O)C(O)C1O)NC(=O)CC=CCCCCCCCCCCCCCCCCCCCCC (stereo partly drawn) [GlcCer(43:02)] | – | – | – | 302.04 | 302.4 | –
24 | CCCCCCCCCCCCC=CC[C@@H](O)[C@H](CO[C@@H]1O[C@H](CO)[C@@H](O)C(O)C1O)NC(=O)CCCCCCCCCCCCCCCCCCCCCCCCC (stereo partly drawn) [GlcCer(44:01)] | – | – | – | 306.44 | 307.93 | –
25 | CCCCCCCCCCCCC=CC[C@@H](O)[C@H](CO[C@@H]1O[C@H](CO)[C@@H](O)C(O)C1O)NC(=O)CC=CCCCCCCCCCCCCCCCCCCCCCC (stereo partly drawn) [GlcCer(44:02)] | – | – | 301.46 | 305.11 | 306.31 | –
26 | CCCCCCCCCCCCC=CC[C@@H](O)[C@H](CO[C@@H]1O[C@H](CO)[C@@H](O)C(O)C1O)NC(=O)CC=CCC=CCCCCCCCCCCCCCCCCCCC (stereo partly drawn) [GlcCer(44:03)] | – | – | – | – | 303.93 | –
27 | CCCCCCCCCCCCC=CC[C@@H](O)[C@H](CO[C@@H]1O[C@H](CO)[C@@H](O)C(O)C1O)NC(=O)CC=CCC=CCCCCCCCCCCCCCCCCCCCCCC (stereo partly drawn) [GlcCer(47:03)] | – | – | – | – | – | collision cross section (N2) ([3]; [M+H-2H2O]+): 307.66 Å²
28 | CCCCCCCCCCCCCCCCCCCCCCCCCCCCCCC(=O)N[C@@H](CO[C@@H]1O[C@H](CO)[C@@H](O)C(O)C1O)[C@H](O)CCCCCCCCCCCCCCC (stereo partly drawn) [GlcCer(49:00)] | – | – | – | – | – | collision cross section (N2) ([3]; [M+Na-2H2O]+): 318.7 Å²
29 | OC[C@H]1O[C@H](OC[C@H]2OC(O)[C@H](O)[C@@H](O)[C@@H]2O)[C@H](O)[C@@H](O)[C@H]1O (stereo partly drawn) [Melibiose] | – | 181.14 | – | – | – | collision cross section (N2) ([1]; [M+Na]+): 176.8 Å²
30 | CC(=O)N[C@H]1C(O)O[C@H](CO)[C@@H](O)[C@@H]1O (stereo partly drawn) [N-Acetyl-D-glucosamine] | – | 160.36 | – | – | – | collision cross section (N2) ([1]; [M+H]+): 147.3 Å²
31 | CC(=O)N[C@@H](CCC(=O)O)C(=O)O [N-Acetyl-L-glutamate] | 139.03 | 149.63 | – | – | – | collision cross section (N2) ([1]; [M+Na-2H]-): 141 Å²
32 | NC(=O)c1cccnc1 [Nicotinamide] | 129.32 | 137.3 | – | – | – | collision cross section (N2) ([1]; [M+H]+): 125.3 Å²
33 | CCCCCCCCCC/C=C\CCCCCCCCCC(=O)O[C@H](COC(=O)CCCCCCCCCCCC)COP(=O)(O)O [PA(35:01)] | – | – | – | – | – | collision cross section (N2) ([3]; [M+2Na-H]+): 271.84 Å²
34 | CCCCCCCC/C=C\CCCCCCCC(=O)O[C@H](COC(=O)CCCCCCCCCCCCCCCCC)COP(=O)(O)O [PA(36:01)] | – | – | – | – | 273.4 | collision cross section (N2) ([3]; [M+2Na-H]+): 274.66 Å²
35 | CN(CC(=O)O)/C(N)=N/P(=O)(O)O [Phosphocreatine] | 153.77 | – | – | – | – | collision cross section (N2) ([1]; [M+H]+): 144.4 Å²
36 | CC(=O)[C@H]1CC[C@H]2[C@@H]3CCC4=CC(=O)CC[C@]4(C)[C@H]3CC[C@]12C [Progesterone] | 186.73 | 169.03 | – | – | – | collision cross section (N2) ([1]; [M+H]+): 181.2 Å²; collision cross section (N2) ([1]; [M-H]-): 182.13 Å²
37 | CCCCC[C@H](O)/C=C/[C@@H]1[C@H]2C/C(=C/CCCC(=O)O)O[C@H]2C[C@H]1O [Prostaglandin I2] | 201.3 | 196.67 | – | – | – | collision cross section (N2) ([1]; [M+H]+): 198.6 Å²; collision cross section (N2) ([1]; [M-H]-): 186.84 Å²
38 | Cn1cnc2c1c(=O)[nH]c(=O)n2C [Theobromine] | 134.37 | – | – | – | – | collision cross section (N2) ([1]; [M-H]-): 135.25 Å²
39 | Cn1c(=O)c2[nH]cnc2n(C)c1=O [Theophylline] | 143.06 | 149.63 | – | – | – | collision cross section (N2) ([1]; [M+H]+): 137.6 Å²; collision cross section (N2) ([1]; [M-H]-): 130.14 Å²
40 | OC[C@@H](O)C(O)[C@@H](O)CO (stereo partly drawn) [Xylitol] | – | 140.79 | – | – | – | collision cross section (N2) ([1]; [M+Na]+): 135.3 Å²; collision cross section (N2) ([1]; [M-H]-): 122.4 Å²
